From ChEMBL document CHEMBL1133555 (J Med Chem, 2000)

Key:
[1] = target: Norepinephrine transporter (Rattus norvegicus, UniProt Q9WTR4); experiment: Binding affinity for norepinephrine transporter (NET) labeled with [3H]nisoxetine
[2] = target: Sodium-dependent serotonin transporter (Rattus norvegicus, UniProt P31652); experiment: Binding affinity for serotonin transporter labeled with [125 I]RTI-55
[3] = target: Sodium-dependent dopamine transporter (Rattus norvegicus, UniProt P23977); experiment: Binding affinity for dopamine transporter (DAT) labeled with [125 I]RTI-55
Sequence of Sodium-dependent dopamine transporter (P23977 whole entry): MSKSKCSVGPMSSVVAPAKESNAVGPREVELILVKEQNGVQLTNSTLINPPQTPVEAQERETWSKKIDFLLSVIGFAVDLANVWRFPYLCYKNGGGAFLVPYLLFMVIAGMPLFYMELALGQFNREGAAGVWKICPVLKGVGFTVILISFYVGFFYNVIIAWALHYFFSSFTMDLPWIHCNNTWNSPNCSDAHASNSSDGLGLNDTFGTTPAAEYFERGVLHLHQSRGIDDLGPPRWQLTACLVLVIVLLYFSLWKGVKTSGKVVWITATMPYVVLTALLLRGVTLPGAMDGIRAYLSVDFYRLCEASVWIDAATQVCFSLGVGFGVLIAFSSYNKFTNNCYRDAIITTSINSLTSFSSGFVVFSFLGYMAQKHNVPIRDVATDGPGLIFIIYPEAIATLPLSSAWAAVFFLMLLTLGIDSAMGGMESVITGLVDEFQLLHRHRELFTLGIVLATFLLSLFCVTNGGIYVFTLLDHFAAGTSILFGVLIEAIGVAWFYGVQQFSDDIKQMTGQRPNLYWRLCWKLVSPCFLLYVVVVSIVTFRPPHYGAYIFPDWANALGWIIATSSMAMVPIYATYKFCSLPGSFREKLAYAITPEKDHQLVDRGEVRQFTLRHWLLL

Sequence of Norepinephrine transporter (Q9WTR4 whole entry): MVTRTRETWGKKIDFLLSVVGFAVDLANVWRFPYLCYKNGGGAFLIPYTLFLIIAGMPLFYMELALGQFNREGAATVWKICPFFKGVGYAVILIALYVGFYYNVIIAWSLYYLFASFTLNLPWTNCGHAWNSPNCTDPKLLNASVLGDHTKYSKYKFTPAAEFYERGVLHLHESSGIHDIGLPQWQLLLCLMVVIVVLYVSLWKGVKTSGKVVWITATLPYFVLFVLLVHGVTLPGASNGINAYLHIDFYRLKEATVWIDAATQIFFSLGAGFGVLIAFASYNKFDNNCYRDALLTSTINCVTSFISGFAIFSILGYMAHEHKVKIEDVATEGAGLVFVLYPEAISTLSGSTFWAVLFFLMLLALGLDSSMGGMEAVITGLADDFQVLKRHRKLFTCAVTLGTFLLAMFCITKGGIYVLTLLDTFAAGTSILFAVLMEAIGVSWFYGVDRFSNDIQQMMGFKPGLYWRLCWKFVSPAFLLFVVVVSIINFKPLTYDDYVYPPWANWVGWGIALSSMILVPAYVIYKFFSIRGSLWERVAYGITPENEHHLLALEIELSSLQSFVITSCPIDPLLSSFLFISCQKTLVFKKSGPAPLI
Sequence of Sodium-dependent serotonin transporter (P31652 whole entry): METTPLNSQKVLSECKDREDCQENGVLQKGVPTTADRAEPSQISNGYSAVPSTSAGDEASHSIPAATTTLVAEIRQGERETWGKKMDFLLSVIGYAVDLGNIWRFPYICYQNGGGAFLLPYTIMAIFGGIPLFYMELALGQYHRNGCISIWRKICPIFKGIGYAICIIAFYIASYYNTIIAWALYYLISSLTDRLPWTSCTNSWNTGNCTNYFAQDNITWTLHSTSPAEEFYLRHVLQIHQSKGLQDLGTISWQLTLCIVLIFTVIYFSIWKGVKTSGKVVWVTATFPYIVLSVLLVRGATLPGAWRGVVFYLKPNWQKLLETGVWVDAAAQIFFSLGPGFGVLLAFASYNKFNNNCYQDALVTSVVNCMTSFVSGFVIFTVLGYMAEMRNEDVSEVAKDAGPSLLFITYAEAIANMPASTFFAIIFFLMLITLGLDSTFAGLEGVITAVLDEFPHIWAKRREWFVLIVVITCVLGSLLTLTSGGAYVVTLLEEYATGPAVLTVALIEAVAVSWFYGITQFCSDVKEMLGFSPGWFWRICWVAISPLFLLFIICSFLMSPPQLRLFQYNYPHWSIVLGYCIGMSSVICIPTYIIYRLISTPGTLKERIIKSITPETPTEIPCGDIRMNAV

| Structure (SMILES) | Ki [1] | Ki [2] | Ki [3] |
| --- | --- | --- | --- |
| CN[C@@H]1CC(c2ccc(Cl)c(Cl)c2)c2c(OC)cccc21 (stereo partly specified) | 27 nM | 63 nM | 1.7 nM |
| CN[C@H]1c2cc(OC)ccc2C(c2ccc(Cl)c(Cl)c2)[C@@H]1O (stereo partly specified) | 1690 nM | 8.1 nM | 1130 nM |
| CN[C@@H]1CC(c2ccc(Cl)c(Cl)c2)c2ccc(OC)cc21 (stereo partly specified) | 15 nM | 1.1 nM | 11.6 nM |
| CN[C@@H]1CC(c2ccc(Cl)c(Cl)c2)c2cccc(OC)c21 (stereo partly specified) | 93 nM | 108 nM | 32 nM |
| CN[C@@H]1CC(c2ccc(Cl)c(Cl)c2OC)c2ccc(OC)cc21 (stereo partly specified) | 122 nM | 5.6 nM | 788 nM |
| CN[C@@H]1CC(c2ccc(Cl)c(Cl)c2)c2cc(OC)c(OC)cc21 (stereo partly specified) | 102 nM | 61 nM | 3.6 nM |
| CN[C@@H]1CC(c2ccc(Cl)c(Cl)c2)c2cc(OC)ccc21 (stereo partly specified) | 76.5 nM | 6.5 nM | 9.4 nM |
